Experimental data: ChEMBL document CHEMBL4316596, “Antimicrobial Peptides with High Proteolytic Resistance for Combating Gram-Negative Bacteria” (J Med Chem, 2019)
Each block holds one substance with its values, some of them ahead of it.

Columns and labels:
[1] = tested on: Pseudomonas aeruginosa; test: Bactericidal activity against Pseudomonas aeruginosa ATCC 27853 incubated for 4 hrs followed by culture spread on agar plates and cultured overnight; type: functional; details: ATCC 27853, 4 h, read-out: MBC>99.9
[2] = tested on: Escherichia coli; test: Bactericidal activity against Escherichia coli ATCC 25922 incubated for 4 hrs followed by culture spread on agar plates and cultured overnight in presence of MgCl2; type: functional; details: ATCC 25922, 4 h, read-out: MBC>99.9
[3] = tested on: Pseudomonas aeruginosa; test: Antimicrobial activity against Pseudomonas aeruginosa CICC 21625 clinical isolates after 24 hrs by NCCLS-protocol based assay; type: functional; details: CICC 21625, 24 h
[4] = tested on: Escherichia coli; test: Bactericidal activity against Escherichia coli K88 incubated for 4 hrs followed by culture spread on agar plates and cultured overnight; type: functional; details: K88, 4 h, read-out: MBC>99.9
[5] = tested on: Escherichia coli; test: Bactericidal activity against Escherichia coli ATCC 25922 incubated for 4 hrs followed by culture spread on agar plates and cultured overnight in presence of NH4Cl; type: functional; details: ATCC 25922, 4 h, read-out: MBC>99.9
[6] = tested on: Salmonella typhimurium; test: Antimicrobial activity against Salmonella typhimurium C7731 after 24 hrs by NCCLS-protocol based assay; type: functional, Salmonella enterica subsp. enterica serovar Typhimurium; details: Salmonella enterica, C7731, 24 h
[7] = Bactericidal activity against Salmonella pullorum C7913 incubated for 4 hrs followed by culture spread on agar plates and cultured overnight; type: functional, Salmonella enterica subsp. enterica serovar Pullorum; details: Salmonella enterica, C7913, 4 h; read-out: MBC>99.9
[8] = tested on: Pseudomonas aeruginosa; test: Bactericidal activity against Pseudomonas aeruginosa 26305 clinical isolates incubated for 4 hrs followed by culture spread on agar plates and cultured overnight; type: functional; details: Pseudomonas aeruginosa, 26305, 4 h; read-out: MBC>99.9
[9] = tested on: Escherichia coli; test: Bactericidal activity against Escherichia coli K99 incubated for 4 hrs followed by culture spread on agar plates and cultured overnight; type: functional; details: K99, 4 h, read-out: MBC>99.9
[10] = tested on: Escherichia coli; test: Antimicrobial activity against Escherichia coli UB1005 after 24 hrs by NCCLS-protocol based assay; type: functional; details: UB1005, 24 h
[11] = tested on: Pseudomonas aeruginosa; test: Antimicrobial activity against Pseudomonas aeruginosa 26305 clinical isolates after 24 hrs by NCCLS-protocol based assay; type: functional; details: Pseudomonas aeruginosa, 26305, 24 h
[12] = tested on: Pseudomonas aeruginosa; test: Bactericidal activity against Pseudomonas aeruginosa CICC 21625 clinical isolates incubated for 4 hrs followed by culture spread on agar plates and cultured overnight; type: functional; details: CICC 21625, 4 h, read-out: MBC>99.9
[13] = tested on: Escherichia coli; test: Antimicrobial activity against Escherichia coli K99 after 24 hrs by NCCLS-protocol based assay; type: functional; details: K99, 24 h
[14] = tested on: Klebsiella pneumoniae; test: Bactericidal activity against Klebsiella pneumoniae incubated for 4 hrs followed by culture spread on agar plates and cultured overnight; type: functional; details: read-out: MBC>99.9
[15] = Antimicrobial activity against Salmonella pullorum C7913 after 24 hrs by NCCLS-protocol based assay; type: functional, Salmonella enterica subsp. enterica serovar Pullorum; details: Salmonella enterica, C7913, 24 h
[16] = tested on: Escherichia coli; test: Antimicrobial activity against Escherichia coli K88 after 24 hrs by NCCLS-protocol based assay; type: functional; details: K88, 24 h
[17] = tested on: Escherichia coli; test: Bactericidal activity against Escherichia coli ATCC 25922 incubated for 4 hrs followed by culture spread on agar plates and cultured overnight in presence of 12.5% serum albumin; type: functional; details: ATCC 25922, 4 h, read-out: MBC>99.9
[18] = tested on: Escherichia coli; test: Bactericidal activity against Escherichia coli ATCC 25922 incubated for 4 hrs followed by culture spread on agar plates and cultured overnight in presence of ZnCl2; type: functional; details: ATCC 25922, 4 h, read-out: MBC>99.9
[19] = tested on: Escherichia coli; test: Antimicrobial activity against Escherichia coli 078 after 24 hrs by NCCLS-protocol based assay; type: functional; details: Escherichia coli, 078, 24 h
[20] = tested on: Klebsiella pneumoniae; test: Antimicrobial activity against Klebsiella pneumoniae after 24 hrs by NCCLS-protocol based assay; type: functional
[21] = tested on: Escherichia coli; test: Bactericidal activity against Escherichia coli UB1005 incubated for 4 hrs followed by culture spread on agar plates and cultured overnight; type: functional; details: UB1005, 4 h, read-out: MBC>99.9
[22] = tested on: Pseudomonas aeruginosa; test: Bactericidal activity against Pseudomonas aeruginosa 25349 clinical isolates incubated for 4 hrs followed by culture spread on agar plates and cultured overnight; type: functional; details: Pseudomonas aeruginosa, 25349, 4 h; read-out: MBC>99.9
[23] = tested on: Salmonella typhimurium; test: Bactericidal activity against Salmonella typhimurium ATCC 14028 incubated for 4 hrs followed by culture spread on agar plates and cultured overnight; type: functional, Salmonella enterica subsp. enterica serovar Typhimurium; details: Salmonella enterica, ATCC 14028, 4 h; read-out: MBC>99.9
[24] = tested on: Escherichia coli; test: Bactericidal activity against Escherichia coli ATCC 25922 incubated for 4 hrs followed by culture spread on agar plates and cultured overnight in presence of CaCl2; type: functional; details: ATCC 25922, 4 h, read-out: MBC>99.9
[25] = tested on: Escherichia coli; test: Bactericidal activity against Escherichia coli ATCC 25922 incubated for 4 hrs followed by culture spread on agar plates and cultured overnight in presence of FeCl3; type: functional; details: ATCC 25922, 4 h, read-out: MBC>99.9
[26] = tested on: Salmonella typhimurium; test: Antimicrobial activity against Salmonella typhimurium ATCC 14028 after 24 hrs by NCCLS-protocol based assay; type: functional, Salmonella enterica subsp. enterica serovar Typhimurium; details: Salmonella enterica, ATCC 14028, 24 h
[27] = tested on: Escherichia coli; test: Bactericidal activity against Escherichia coli 078 incubated for 4 hrs followed by culture spread on agar plates and cultured overnight; type: functional; details: Escherichia coli, 078, 4 h; read-out: MBC>99.9
[28] = tested on: Escherichia coli; test: Bactericidal activity against Escherichia coli ATCC 25922 incubated for 4 hrs followed by culture spread on agar plates and cultured overnight in presence of NaCl; type: functional; details: ATCC 25922, 4 h, read-out: MBC>99.9
[29] = tested on: Escherichia coli; test: Bactericidal activity against Escherichia coli ATCC 25922 incubated for 4 hrs followed by culture spread on agar plates and cultured overnight in presence of KCl; type: functional; details: ATCC 25922, 4 h, read-out: MBC>99.9
[30] = tested on: Escherichia coli; test: Bactericidal activity against Escherichia coli ATCC 25922 incubated for 4 hrs followed by culture spread on agar plates and cultured overnight; type: functional; details: ATCC 25922, 4 h, read-out: MBC>99.9
[31] = tested on: Escherichia coli; test: Bactericidal activity against Escherichia coli ATCC 25922 incubated for 4 hrs followed by culture spread on agar plates and cultured overnight in presence of 25% serum albumin; type: functional; details: ATCC 25922, 4 h, read-out: MBC>99.9
[32] = tested on: Escherichia coli; test: Bactericidal activity against Escherichia coli ATCC 25922 incubated for 4 hrs followed by culture spread on agar plates and cultured overnight in presence of 50% serum albumin; type: functional; details: ATCC 25922, 4 h, read-out: MBC>99.9
[33] = tested on: Acinetobacter baumannii; test: Bactericidal activity against Acinetobacter baumannii incubated for 4 hrs followed by culture spread on agar plates and cultured overnight; type: functional; details: read-out: MBC>99.9
[34] = tested on: Pseudomonas aeruginosa; test: Bactericidal activity against Pseudomonas aeruginosa CICC 21630 clinical isolates incubated for 4 hrs followed by culture spread on agar plates and cultured overnight; type: functional; details: CICC 21630, 4 h, read-out: MBC>99.9
[35] = tested on: Salmonella typhimurium; test: Bactericidal activity against Salmonella typhimurium C7731 incubated for 4 hrs followed by culture spread on agar plates and cultured overnight; type: functional, Salmonella enterica subsp. enterica serovar Typhimurium; details: Salmonella enterica, C7731, 4 h; read-out: MBC>99.9
[36] = tested on: Escherichia coli; test: Antimicrobial activity against Escherichia coli ATCC 25922 after 24 hrs by NCCLS-protocol based assay; type: functional; details: ATCC 25922, 24 h
[37] = tested on: Pseudomonas aeruginosa; test: Antimicrobial activity against Pseudomonas aeruginosa CICC 21630 clinical isolates after 24 hrs by NCCLS-protocol based assay; type: functional; details: CICC 21630, 24 h
[38] = tested on: Pseudomonas aeruginosa; test: Bactericidal activity against Pseudomonas aeruginosa PAO1 incubated for 4 hrs followed by culture spread on agar plates and cultured overnight; type: functional; details: PAO1, 4 h, read-out: MBC>99.9
[39] = tested on: Acinetobacter baumannii; test: Antimicrobial activity against Acinetobacter baumannii after 24 hrs by NCCLS-protocol based assay; type: functional
[40] = tested on: Pseudomonas aeruginosa; test: Antimicrobial activity against Pseudomonas aeruginosa PAO1 after 24 hrs by NCCLS-protocol based assay; type: functional; details: PAO1, 24 h
[41] = tested on: Pseudomonas aeruginosa; test: Antimicrobial activity against Pseudomonas aeruginosa 25349 clinical isolates after 24 hrs by NCCLS-protocol based assay; type: functional; details: Pseudomonas aeruginosa, 25349, 24 h
[42] = tested on: Pseudomonas aeruginosa; test: Antimicrobial activity against Pseudomonas aeruginosa ATCC 27853 after 24 hrs by NCCLS-protocol based assay; type: functional; details: ATCC 27853, 24 h

MIC95 [3]: > 64 µM
MIC95 [6]: 4 µM
MIC95 [10]: 2 µM
MIC95 [11]: > 64 µM
MIC95 [13]: 2 µM
MIC95 [15]: 4 µM
MIC95 [16]: 1 µM
MIC95 [19]: 2 µM
MIC95 [20]: 16 µM
MIC95 [26]: 4 µM
MIC95 [36]: 2 µM
MIC95 [37]: > 64 µM
MIC95 [39]: 4 µM
MIC95 [40]: 8 µM
MIC95 [41]: > 64 µM
MIC95 [42]: 8 µM
Substance: H-IRPIIRPIIRPIIRPIIRPIIRPI-NH2
MBC [1]: 16 µM
MBC [2]: 8 µM
MBC [4]: 1 µM
MBC [5]: 8 µM
MBC [7]: 8 µM
MBC [8]: > 64 µM
MBC [9]: 4 µM
MBC [12]: > 64 µM
MBC [14]: 8 µM
MBC [17]: 16 µM
MBC [18]: 4 µM
MBC [21]: 2 µM
MBC [22]: > 64 µM
MBC [23]: 4 µM
MBC [24]: > 128 µM
MBC [25]: 8 µM
MBC [27]: 2 µM
MBC [28]: 32 µM
MBC [29]: 4 µM
MBC [30]: 2 µM
MBC [31]: 32 µM
MBC [32]: 64 µM
MBC [33]: 8 µM
MBC [34]: > 64 µM
MBC [35]: 4 µM
MBC [38]: 16 µM

MIC95 [3]: 64 µM
MIC95 [6]: 8 µM
MIC95 [10]: 2 µM
MIC95 [11]: 64 µM
MIC95 [13]: 2 µM
MIC95 [15]: 4 µM
MIC95 [16]: 1 µM
MIC95 [19]: 2 µM
MIC95 [20]: 8 µM
MIC95 [26]: 4 µM
MIC95 [36]: 1 µM
MIC95 [37]: 32 µM
MIC95 [39]: 4 µM
MIC95 [40]: 4 µM
MIC95 [41]: 32 µM
MIC95 [42]: 4 µM
Substance: H-LKPLLKPLLKPLLKPLLKPLLKPL-NH2
MBC [1]: 4 µM
MBC [2]: 16 µM
MBC [4]: 2 µM
MBC [5]: 4 µM
MBC [7]: 8 µM
MBC [8]: > 64 µM
MBC [9]: 2 µM
MBC [12]: 64 µM
MBC [14]: 8 µM
MBC [17]: 8 µM
MBC [18]: 2 µM
MBC [21]: 4 µM
MBC [22]: 32 µM
MBC [23]: 8 µM
MBC [24]: > 128 µM
MBC [25]: 4 µM
MBC [27]: 2 µM
MBC [28]: 16 µM
MBC [29]: 1 µM
MBC [30]: 2 µM
MBC [31]: > 128 µM
MBC [32]: > 128 µM
MBC [33]: 4 µM
MBC [34]: 64 µM
MBC [35]: 8 µM
MBC [38]: 8 µM

MIC95 [3]: 32 µM
MIC95 [6]: 2 µM
MIC95 [10]: 2 µM
MIC95 [11]: 32 µM
MIC95 [13]: 2 µM
MIC95 [15]: 2 µM
MIC95 [16]: 2 µM
MIC95 [19]: 2 µM
MIC95 [20]: 8 µM
MIC95 [26]: 4 µM
MIC95 [36]: 2 µM
MIC95 [37]: 8 µM
MIC95 [39]: 2 µM
MIC95 [40]: 4 µM
MIC95 [41]: 32 µM
MIC95 [42]: 8 µM
Substance: H-LRPLLRPLLRPLLRPLLRPLLRPL-NH2
MBC [1]: 16 µM
MBC [2]: 4 µM
MBC [4]: 4 µM
MBC [5]: 2 µM
MBC [7]: 4 µM
MBC [8]: 32 µM
MBC [9]: 4 µM
MBC [12]: 32 µM
MBC [14]: 8 µM
MBC [17]: 8 µM
MBC [18]: 2 µM
MBC [21]: 4 µM
MBC [22]: 32 µM
MBC [23]: 8 µM
MBC [24]: > 128 µM
MBC [25]: 4 µM
MBC [27]: 2 µM
MBC [28]: 4 µM
MBC [29]: 2 µM
MBC [30]: 2 µM
MBC [31]: 16 µM
MBC [32]: 32 µM
MBC [33]: 4 µM
MBC [34]: 16 µM
MBC [35]: 8 µM
MBC [38]: 8 µM
